# Source: patent publication US10363251B2, “(+)-morphinans as antagonists of toll-like receptor 9 and therapeutic uses thereof” (Mallinckrodt LLC, priority 2009, dated 2019)
# Entries after “also recorded” stand apart in the source; their conditions may differ.
# Legend:
# [1] = test system: chronic constriction injury (CCI) neuropathic pain model; experiment: Mechanical allodynia (Von Frey) in chronic constriction injury (Bennett) model, Example 3; assay type: in vivo, rat; settings: Day 14 post-surgery, 30 and 90 min post-dosing, vs vehicle; for Mechanical allodynia (50% allodynia threshold), left (affected) paw: (+)-naloxone.HCl 66.7 mg/kg S.C., Gabapentin 100 mg/kg I.P.
# From the text: Neuropathic pain affects approximately 1% of the U.S. population and is extremely difficult to manage. Usually the pain is chronic, severe, and fails to respond to traditional analgesic drugs. Fortunately, one of the most widely used animal models for neuropathic pain closely mimics the pain endured by patients. In this model, termed the chronic constriction injury (CCI) or Bennett model, four closely spaced ligatures tied loosely around the sciatic nerve of a rat cause demyelination of the nerve, resulting in spontaneous pain, such as prolonged paw elevation and licking of the ligated paw. Induced pain in the nerve-injured limb can be measured using Von Frey filaments, applied to the plantar surface of the paw to test for responses to non-noxious tactile stimulation. The onset of this heightened mechanical allodynia is quite rapid and it persists for 2-3 months.
# In this example, the CCI ligation was performed on the left sciatic nerve in three groups of rats. Von Frey testing of mechanical allodynia was performed on both paws on Day 14 to determine the analgesic efficacy of the test agent. The testing was performed pre-dosing, and at 30 and 90 minutes post-dosing.
# The animals were allocated to treatment groups based on their baseline Von Frey data, measured prior to surgery. The mechanical allodynia scores for each group were reviewed to ensure that the mean values and standard deviation satisfied the assumption of homogeneity. Thirty-one (31) animals were used on the study. Thirty (30) animals were initially allocated to treatment groups, and the remaining […] animals were held as spares. One spare was then used to replace an animal that died during surgery. Body weights were taken one day after arrival, prior to surgery and weekly thereafter. On Day 14, after the final behavioral testing, the animals were euthanized by carbon dioxide asphyxiation. No necropsy was performed nor tissues collected.
# All surgeries were performed under aseptic conditions. Prior to surgery, the rats were sedated using inhaled Isoflurane anesthetic. The left leg was shaved and prepped. The common sciatic nerve was exposed and freed from adherent tissue at mid-thigh by separating the muscle (biceps femoris) by blunt dissection. Proximal to the sciatic nerve's trifurcation; approximately 7 mm of nerve was freed from the adhering tissue. Four ligatures, approximately 1 mm apart, were tied loosely around the nerve using 6.0 chromic catgut. Each of the sutures was tied loosely with a square knot around the sciatic nerve. A brief twitch in the muscle surrounding the exposure was an indicator of the desired degree of constriction. The site was then closed using the appropriate suture material. Post-operative care and observations were carried out until the animal recovered consciousness.
# The animals underwent a series of behavioral testing for neuropathic pain assessment. A Von Frey test of mechanical allodynia was performed on both hind paws prior to surgery to achieve a baseline measurement for randomization and then following surgery on Day 14 (test article efficacy) according to Table 4.
# Twice prior to surgery, the animals were acclimated to the allodynia apparatus. This habituated the rats to the testing devices to familiarize them with the apparatus so they were calm at the time of testing. […] Animals were first habituated to the testing chamber so that they were calm enough for their pain threshold to be assessed. […]
# TLR9 = experiment: IL-1β up-regulation in peritoneal macrophages by TLR9 agonist ODN2395; assay type: cell-based
# From the text: TLR9 signalling involves activation of NF-κB and IRF downstream pathways. The (+)-morphinan inhibited both of these pathways following activation of TLR9 (but not activation of TLR4 or other receptors). The type C TLR9 agonist, ODN2395, and the TL4 agonist, LPS, both induce up-regulation of IL-1β in peritoneal macrophages via activation of NF-κB.
SMILES,"Mechanical allodynia (50% allodynia threshold), left (affected) paw ([1]; listed as (+)-naloxone)","Mechanical allodynia (50% allodynia threshold), left (affected) paw ([1]; listed as (+)-naloxone.HCl)","Mechanical allodynia (50% allodynia threshold), right (unaffected) paw [1]",IL-1β mRNA up-regulation (NF-κB pathway) (TLR9)
"C=CCN1CC[C@]23c4c5ccc(O)c4O[C@H]2C(=O)CC[C@]3(O)[C@H]1C5 [(+)-Naloxone, (+)-naloxone]",effective at significantly reducing the allodynia,effective analgesic for reversing neuropathic pain,no significant group differences,–
CN[C@@H]1CC[C@]2(O)[C@@H]3Cc4ccc(O)c5c4[C@]2(CCN3CC2CC2)[C@@H]1O5 [II-78],–,–,–,response was inhibited; also recorded: reduced both NFκB- and IRF-dependent pathways downstream of TLR9
